This is an account of results in patent US8440658B2, “Cyclic urea inhibitors of 11β-hydroxysteroid dehydrogenase 1” (Vitae Pharmaceuticals, Inc., priority 2007, dated 2013).

The target of this test is T1, human 11β-HSD1 (Homo sapiens, UniProt P28845).
T1 construct: expressed in transfected cells; host or cells: CHO cells (microsomes)
Put plainly: Inhibition of microsomal preparation of 11β-HSD1 (SPA, [3H]cortisone to [3H]cortisol). The format is biochemical. To be noted: for inhibition at 0.1 µM / Average % inhibition at 100 nM: compound at 100 nM; for IC50: microsomes from CHO cells overexpressing human 11β-HSD1, 160 nM [3H]cortisone, read-out: Biological Test Example 1 (IC50 class). How it is done:
The inhibition of microsomal preparation of 11β-HSD1 by compounds of the invention was measured essentially as previously described (K. Solly, S. S. Mundt, H. J. Zokian, G. J. Ding, A. Hermanowski-Vosatka, B. Strulovici, and W. Zheng, High-Throughput Screening of 11-Beta-Hydroxysteroid Dehydrogenase Type 1 in Scintillation Proximity Assay Format. Assay Drug Dev Technol 3 (2005) 377-384). All reactions were carried out at room temperature in 96 well clear flexible PET Microbeta plates (PerkinElmer). The assay begins by dispensing 49 μl of substrate solution (50 mM HEPES, pH 7.4, 100 mM KCl, 5 mM NaCl, 2 mM MgCl2, 2 mM NADPH and 160 nM [^3H]cortisone (1 Ci/mmol)) and mixing in 1 μL of the test compounds in DMSO previously diluted in half-log increments (8 points) starting at 0.1 mM. After a 10 minute pre-incubation, 50 μL of enzyme solution containing microsomes isolated from CHO cells overexpressing human 11β-HSD1 (10-20 μg/ml of total protein) was added, and the plates were incubated for 90 minutes at room temperature. The reaction was stopped by adding 50 μl of the SPA beads suspension containing 10 μM 18β-glycyrrhetinic acid, 5 mg/ml protein A coated YSi SPA beads (GE Healthcare) and 3.3 μg/ml of anti-cortisol antibody (East Coast Biologics) in Superblock buffer (Bio-Rad). The plates were shaken for 120 minutes at room temperature, and the SPA signal corresponding to [^3H]cortisol was measured on a Microbeta plate reader.

T1 sequence (P28845 whole entry): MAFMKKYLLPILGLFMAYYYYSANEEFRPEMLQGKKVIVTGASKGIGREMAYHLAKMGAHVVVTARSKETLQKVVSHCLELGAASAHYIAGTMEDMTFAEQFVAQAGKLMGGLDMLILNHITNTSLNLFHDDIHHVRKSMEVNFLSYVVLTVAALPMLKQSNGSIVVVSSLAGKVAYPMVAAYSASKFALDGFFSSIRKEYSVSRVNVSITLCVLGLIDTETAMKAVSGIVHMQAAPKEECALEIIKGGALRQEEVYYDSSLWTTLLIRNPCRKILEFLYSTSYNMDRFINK

Take `C=CCC1(c2ccccc2)CCN([C@@H](C)C(C)(C)O)C(=O)O1` (single isomer, unassigned) [EXAMPLE 12 Isomer 1]: at 0.1 µM the inhibition was 47.2% and the IC50 (usually the concentration at which inhibition is half-maximal) was more than 100 nM.

Take `C[C@H](N1CC[C@@](CCO)(c2ccc(F)cc2)OC1=O)C(C)(C)C` (single isomer, unassigned; isomer 2) [EXAMPLE 1 Isomer 2]: the “Average % inhibition at 100 nM” value amounted to 36.5% and the IC50 is less than 100 nM.

Turning to `C[C@H](N1CC[C@](CCCO)(c2ccc(F)cc2)NC1=O)C(C)(C)C` [EXAMPLE 11, (R)-1-((S)-3,3-dimethylbutan-2-yl)-4-(4-fluorophenyl)-4-(3-hydroxypropyl)tetrahydropyrimidin-2(1H)-one], testing at 0.1 µM gave an inhibition of 97% and the half-inhibitory concentration (IC50) is less than 100 nM.

For `C[C@H](N1CC[C@](CCNS(C)(=O)=O)(c2ccc(F)cc2)OC1=O)C(C)(C)C` [EXAMPLE 5, N-(2-((S)-3-((S)-3,3-dimethylbutan-2-yl)-6-(4-fluorophenyl)-2-oxo-1,3-oxazinan-6-yl)ethyl)methanesulfonamide], the inhibition (commonly the percentage by which the read-out fell short of the control) at 0.1 µM turned out to be 91% and the half-maximal inhibitory concentration (IC50) was less than 100 nM.

On to `C[C@H](N1CCC(CCCO)(c2ccccc2)OC1=O)C(C)(C)O` (single isomer, unassigned) [EXAMPLE 10 Isomer 1], for which the IC50 is less than 100 nM. Further, the “Average % inhibition at 100 nM” value (0.1 µM) is recorded as 66.8%.

On to `C[C@H](N1CC[C@@](CCCO)(c2ccccc2)OC1=O)C(C)(C)C` [EXAMPLE 3 Isomer 2, (S)-3-((S)-3,3-dimethylbutan-2-yl)-6-(3-hydroxypropyl)-6-phenyl-1,3-oxazinan-2-one], for which at 0.1 µM the inhibition was 58.8% and the half-maximal inhibitory concentration (IC50) is less than 100 nM.

Regarding `C[C@H](N1CCC(CCCO)(c2ccccc2)OC1=O)C(C)(C)O` (single isomer, unassigned) [EXAMPLE 10 Isomer 2], the IC50 was more than 100 nM. The “Average % inhibition at 100 nM” value (0.1 µM) amounted to 13.4%.

In the case of `C=CCC1(c2ccccc2)CCN([C@@H](C)C(C)(C)O)C(=O)O1` (single isomer, unassigned) [EXAMPLE 12 Isomer 2], the IC50 was less than 100 nM. Also, the “Average % inhibition at 100 nM” value (0.1 µM) was found to be 53.9%.

As to `CC(C)(C)N1CCC(CCCO)(c2ccc(F)cc2)OC1=O` (single isomer, unassigned) [EXAMPLE 9 Isomer 1, 3-tert-butyl-6-(4-fluorophenyl)-6-(3-hydroxypropyl)-1,3-oxazinan-2-one], the concentration for half-maximal inhibition (IC50) was less than 100 nM. Moreover, the “Average % inhibition at 100 nM” value (0.1 µM) came out at 74.7%.

For `C[C@H](N1CC[C@](CCCNS(C)(=O)=O)(c2ccc(F)cc2)OC1=O)C(C)(C)C` [EXAMPLE 6, N-(3-((R)-3-((S)-3,3-dimethylbutan-2-yl)-6-(4-fluorophenyl)-2-oxo-1,3-oxazinan-6-yl)propyl)methanesulfonamide], the inhibition at 0.1 µM is 95.9% and the IC50 is less than 100 nM.

For the compound `C[C@H](N1CC[C@](CCO)(c2ccc(F)cc2)NC1=O)C(C)(C)C` [EXAMPLE 7, (S)-1-((S)-3,3-dimethylbutan-2-yl)-4-(4-fluorophenyl)-4-(2-hydroxyethyl)tetrahydropyrimidin-2(1H)-one], the inhibition at 0.1 µM was determined as 93.3% and the IC50 was less than 100 nM.

For the compound `CC(C)(C)N1CCC(CCCO)(c2ccc(F)cc2)OC1=O` (single isomer, unassigned) [EXAMPLE 9 Isomer 2, 3-tert-butyl-6-(4-fluorophenyl)-6-(3-hydroxypropyl)-1,3-oxazinan-2-one], the half-maximal inhibitory concentration (IC50) is more than 100 nM. In addition, the “Average % inhibition at 100 nM” value (0.1 µM) turned out to be 25.45%.

On to `C[C@H](N1CC[C@](CCC(N)=O)(c2ccc(F)cc2)OC1=O)C(C)(C)C` [EXAMPLE 4, 3-((R)-3-((S)-3,3-dimethylbutan-2-yl)-6-(4-fluorophenyl)-2-oxo-1,3-oxazinan-6-yl)propanamide], for which at 0.1 µM the inhibition was 91.8% and the IC50 was less than 100 nM.

Consider `C[C@H](N1CC[C@](CCO)(c2ccc(F)cc2)OC1=O)C(C)(C)C` (single isomer, unassigned; isomer 1) [EXAMPLE 1 Isomer 1], for which the “Average % inhibition at 100 nM” value is given as 94.4% and the IC50 is less than 100 nM.

On to `C[C@H](N1CC[C@](CCCO)(c2ccccc2)OC1=O)C(C)(C)C` [EXAMPLE 3 Isomer 1], for which the inhibition at 0.1 µM was 94% and the IC50 is less than 100 nM.

As for `CC(C)(C)N1CCC(CCCO)(c2ccccc2)OC1=O` (single isomer, unassigned) [EXAMPLE 8 Isomer 2, 3-tert-butyl-6-(3-hydroxypropyl)-6-phenyl-1,3-oxazinan-2-one], the IC50 was more than 100 nM. In addition, the “Average % inhibition at 100 nM” value (0.1 µM) worked out at 22.1%.

Consider `C[C@H](N1CC[C@](CCCO)(c2ccc(F)cc2)OC1=O)C(C)(C)C` [EXAMPLE 2], for which the inhibition at 0.1 µM stood at 98.6% and the IC50 was less than 100 nM.

For the compound `CC(C)(C)N1CCC(CCCO)(c2ccccc2)OC1=O` (single isomer, unassigned) [EXAMPLE 8 Isomer 1, 3-tert-butyl-6-(3-hydroxypropyl)-6-phenyl-1,3-oxazinan-2-one], the IC50 was less than 100 nM. The “Average % inhibition at 100 nM” value (0.1 µM) is recorded as 84.0%.
